Data on 4 molecules can be found in patent publication US9840520B2, “Heterocyclic hydroxamic acids as protein deacetylase inhibitors and dual protein deacetylase-protein kinase inhibitors and methods of use thereof” (The Regents of the University of Colorado, A Body Corporate, priority 2014, dated 2017).

For assay [1], the target named is HDAC-7 (Homo sapiens, UniProt Q8WUI4). The assay can be described thus: HDAC Fluorescent Activity Assay (Fluor de Lys), HDAC-7.
Assay [2] deals with HDAC-9 (Homo sapiens, UniProt Q9UKV0). The assay can be described thus: HDAC Fluorescent Activity Assay (Fluor de Lys), HDAC-9.
In assay [3] the target is HDAC-4 (Homo sapiens, UniProt P56524). Put plainly: HDAC Fluorescent Activity Assay (Fluor de Lys), HDAC-4.
Chain of HDAC-4 (P56524 whole entry): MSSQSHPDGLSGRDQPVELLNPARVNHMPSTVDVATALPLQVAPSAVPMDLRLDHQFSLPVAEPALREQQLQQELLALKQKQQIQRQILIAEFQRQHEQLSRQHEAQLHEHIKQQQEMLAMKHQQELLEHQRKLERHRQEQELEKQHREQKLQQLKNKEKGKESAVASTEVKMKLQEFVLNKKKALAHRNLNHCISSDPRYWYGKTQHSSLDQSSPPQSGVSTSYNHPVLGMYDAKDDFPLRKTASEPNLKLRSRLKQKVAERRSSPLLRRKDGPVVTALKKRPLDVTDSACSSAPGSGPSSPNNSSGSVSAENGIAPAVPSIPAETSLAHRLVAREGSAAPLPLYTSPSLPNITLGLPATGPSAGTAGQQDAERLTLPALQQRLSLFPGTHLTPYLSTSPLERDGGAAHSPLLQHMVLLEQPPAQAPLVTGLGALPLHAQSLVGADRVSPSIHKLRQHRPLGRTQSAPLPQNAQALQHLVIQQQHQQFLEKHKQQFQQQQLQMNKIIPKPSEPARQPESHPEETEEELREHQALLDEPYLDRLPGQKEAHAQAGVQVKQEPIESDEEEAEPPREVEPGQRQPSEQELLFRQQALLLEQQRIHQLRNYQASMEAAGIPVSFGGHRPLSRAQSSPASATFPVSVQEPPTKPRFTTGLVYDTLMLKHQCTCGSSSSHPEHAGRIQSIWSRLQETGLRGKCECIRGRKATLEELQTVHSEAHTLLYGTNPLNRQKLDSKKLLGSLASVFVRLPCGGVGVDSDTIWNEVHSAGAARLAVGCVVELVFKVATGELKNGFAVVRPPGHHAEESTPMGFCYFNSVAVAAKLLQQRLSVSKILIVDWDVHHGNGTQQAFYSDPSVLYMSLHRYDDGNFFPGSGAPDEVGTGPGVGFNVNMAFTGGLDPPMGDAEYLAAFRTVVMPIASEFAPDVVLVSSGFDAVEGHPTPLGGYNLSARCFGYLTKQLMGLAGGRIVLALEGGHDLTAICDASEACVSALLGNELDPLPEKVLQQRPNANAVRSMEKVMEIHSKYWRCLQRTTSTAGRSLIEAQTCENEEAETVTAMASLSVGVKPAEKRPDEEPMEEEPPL
The target of assay [4] is HDAC-2 (Homo sapiens, UniProt Q92769). Put plainly: HDAC Fluorescent Activity Assay (Fluor de Lys), HDAC-2.
Chain of HDAC-2 (Q92769 whole entry): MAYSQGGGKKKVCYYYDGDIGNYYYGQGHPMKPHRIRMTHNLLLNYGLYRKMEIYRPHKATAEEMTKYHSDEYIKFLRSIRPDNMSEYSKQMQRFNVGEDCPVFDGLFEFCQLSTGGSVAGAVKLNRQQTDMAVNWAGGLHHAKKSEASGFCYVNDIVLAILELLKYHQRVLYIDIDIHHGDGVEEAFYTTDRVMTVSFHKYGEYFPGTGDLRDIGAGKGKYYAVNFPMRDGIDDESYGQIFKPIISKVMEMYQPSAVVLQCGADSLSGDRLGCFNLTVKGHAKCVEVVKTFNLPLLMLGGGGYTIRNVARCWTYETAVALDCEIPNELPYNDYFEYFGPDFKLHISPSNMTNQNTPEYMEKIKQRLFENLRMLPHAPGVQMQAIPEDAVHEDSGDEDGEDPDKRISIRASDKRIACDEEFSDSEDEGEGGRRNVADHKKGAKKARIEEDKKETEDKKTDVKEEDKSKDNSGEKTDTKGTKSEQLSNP
Assay [5] concerns the target HDAC-5 (Homo sapiens, UniProt Q9UQL6). The assay can be described thus: HDAC Fluorescent Activity Assay (Fluor de Lys), HDAC-5.
Assay [6] concerns the target HDAC-6 (Homo sapiens, UniProt Q9UBN7). The assay can be described thus: HDAC Fluorescent Activity Assay (Fluor de Lys), HDAC-6.
Assay [7] has as its target HDAC-10 (Homo sapiens, UniProt Q969S8). Put plainly: HDAC Fluorescent Activity Assay (Fluor de Lys), HDAC-10.
The target in assay [8] is HDAC-11 (Homo sapiens, UniProt Q96DB2). The assay can be described thus: HDAC Fluorescent Activity Assay (Fluor de Lys), HDAC-11.
Assay [9] deals with HDAC-3 (Homo sapiens, UniProt O15379). Put plainly: HDAC Fluorescent Activity Assay (Fluor de Lys), HDAC-3.
Assay [10] has as its target HDAC-8 (Homo sapiens, UniProt Q9BY41). Put plainly: HDAC Fluorescent Activity Assay (Fluor de Lys), HDAC-8.
For assay [11], the target named is HDAC-1 (Homo sapiens, UniProt Q13547). Put plainly: HDAC Fluorescent Activity Assay (Fluor de Lys), HDAC-1.
Chain of HDAC-1 (Q13547 whole entry): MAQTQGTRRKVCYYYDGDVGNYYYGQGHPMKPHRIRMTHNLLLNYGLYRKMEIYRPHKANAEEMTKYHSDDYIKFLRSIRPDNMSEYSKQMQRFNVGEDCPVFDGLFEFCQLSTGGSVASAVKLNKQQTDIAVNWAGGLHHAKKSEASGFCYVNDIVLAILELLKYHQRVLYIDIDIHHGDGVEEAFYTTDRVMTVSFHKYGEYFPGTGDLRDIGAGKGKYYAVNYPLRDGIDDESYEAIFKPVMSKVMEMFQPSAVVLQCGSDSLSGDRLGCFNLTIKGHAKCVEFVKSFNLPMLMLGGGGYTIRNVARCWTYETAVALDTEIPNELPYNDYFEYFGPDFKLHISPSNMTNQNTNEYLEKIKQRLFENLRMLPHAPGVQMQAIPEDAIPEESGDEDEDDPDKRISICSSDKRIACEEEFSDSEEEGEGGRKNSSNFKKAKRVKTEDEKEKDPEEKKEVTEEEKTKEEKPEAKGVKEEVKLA
In assay [12] the test system is ovarian xenograft. The settings on record: cited from earlier work.
The target in assay [13] is TTK/Mps1 (Homo sapiens, UniProt P33981). The settings on record: TTK/Mps1 inhibitors of the literature; cited from earlier work.

Where only a bound is given, the exact number is not on record here.

Chain of HDAC-5 (Q9UQL6 whole entry): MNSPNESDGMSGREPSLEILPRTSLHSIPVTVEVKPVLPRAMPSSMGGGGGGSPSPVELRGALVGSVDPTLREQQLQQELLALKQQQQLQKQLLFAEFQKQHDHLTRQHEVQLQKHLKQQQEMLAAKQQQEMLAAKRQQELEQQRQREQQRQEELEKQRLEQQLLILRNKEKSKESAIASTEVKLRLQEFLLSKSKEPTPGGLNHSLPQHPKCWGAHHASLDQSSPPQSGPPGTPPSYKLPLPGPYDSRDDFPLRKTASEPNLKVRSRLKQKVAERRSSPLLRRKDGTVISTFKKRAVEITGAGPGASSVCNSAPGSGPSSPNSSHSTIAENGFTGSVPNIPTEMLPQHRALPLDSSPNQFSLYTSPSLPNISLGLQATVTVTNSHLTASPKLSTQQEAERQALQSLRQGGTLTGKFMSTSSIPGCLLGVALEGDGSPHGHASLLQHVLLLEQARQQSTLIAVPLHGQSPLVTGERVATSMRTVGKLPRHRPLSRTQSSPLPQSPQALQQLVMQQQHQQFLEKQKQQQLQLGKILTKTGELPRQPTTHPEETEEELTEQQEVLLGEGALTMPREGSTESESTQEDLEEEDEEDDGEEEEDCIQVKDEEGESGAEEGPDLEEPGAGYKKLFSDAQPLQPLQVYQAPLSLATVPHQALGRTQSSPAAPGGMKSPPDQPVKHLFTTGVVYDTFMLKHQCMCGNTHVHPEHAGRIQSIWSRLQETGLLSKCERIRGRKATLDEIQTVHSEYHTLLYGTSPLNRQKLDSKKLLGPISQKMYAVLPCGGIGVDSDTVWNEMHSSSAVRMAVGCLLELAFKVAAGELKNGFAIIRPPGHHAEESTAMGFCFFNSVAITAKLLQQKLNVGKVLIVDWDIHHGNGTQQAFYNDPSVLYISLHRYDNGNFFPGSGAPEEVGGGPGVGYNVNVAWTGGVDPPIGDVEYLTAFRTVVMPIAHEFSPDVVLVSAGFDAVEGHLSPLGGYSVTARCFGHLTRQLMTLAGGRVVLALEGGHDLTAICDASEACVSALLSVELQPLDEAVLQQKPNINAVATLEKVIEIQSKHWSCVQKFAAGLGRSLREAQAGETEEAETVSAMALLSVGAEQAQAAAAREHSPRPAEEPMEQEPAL
Chain of HDAC-10 (Q969S8 whole entry): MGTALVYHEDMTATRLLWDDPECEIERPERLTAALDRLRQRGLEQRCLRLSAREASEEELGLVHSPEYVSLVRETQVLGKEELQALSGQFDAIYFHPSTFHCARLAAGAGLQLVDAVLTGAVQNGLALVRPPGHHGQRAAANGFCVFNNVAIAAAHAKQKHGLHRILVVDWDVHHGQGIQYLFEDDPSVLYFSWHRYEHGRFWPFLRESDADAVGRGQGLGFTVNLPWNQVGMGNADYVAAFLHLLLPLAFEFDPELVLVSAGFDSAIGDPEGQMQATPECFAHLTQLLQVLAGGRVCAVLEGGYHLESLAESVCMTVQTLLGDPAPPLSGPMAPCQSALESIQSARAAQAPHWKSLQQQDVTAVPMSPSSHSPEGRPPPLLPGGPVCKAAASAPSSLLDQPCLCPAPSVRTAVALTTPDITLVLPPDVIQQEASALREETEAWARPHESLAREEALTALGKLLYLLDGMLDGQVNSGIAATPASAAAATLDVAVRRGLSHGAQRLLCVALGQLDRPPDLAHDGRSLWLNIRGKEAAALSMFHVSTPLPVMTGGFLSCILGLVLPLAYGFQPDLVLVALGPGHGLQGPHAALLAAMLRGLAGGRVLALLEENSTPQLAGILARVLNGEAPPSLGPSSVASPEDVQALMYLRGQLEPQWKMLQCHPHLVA
Chain of HDAC-7 (Q8WUI4 whole entry): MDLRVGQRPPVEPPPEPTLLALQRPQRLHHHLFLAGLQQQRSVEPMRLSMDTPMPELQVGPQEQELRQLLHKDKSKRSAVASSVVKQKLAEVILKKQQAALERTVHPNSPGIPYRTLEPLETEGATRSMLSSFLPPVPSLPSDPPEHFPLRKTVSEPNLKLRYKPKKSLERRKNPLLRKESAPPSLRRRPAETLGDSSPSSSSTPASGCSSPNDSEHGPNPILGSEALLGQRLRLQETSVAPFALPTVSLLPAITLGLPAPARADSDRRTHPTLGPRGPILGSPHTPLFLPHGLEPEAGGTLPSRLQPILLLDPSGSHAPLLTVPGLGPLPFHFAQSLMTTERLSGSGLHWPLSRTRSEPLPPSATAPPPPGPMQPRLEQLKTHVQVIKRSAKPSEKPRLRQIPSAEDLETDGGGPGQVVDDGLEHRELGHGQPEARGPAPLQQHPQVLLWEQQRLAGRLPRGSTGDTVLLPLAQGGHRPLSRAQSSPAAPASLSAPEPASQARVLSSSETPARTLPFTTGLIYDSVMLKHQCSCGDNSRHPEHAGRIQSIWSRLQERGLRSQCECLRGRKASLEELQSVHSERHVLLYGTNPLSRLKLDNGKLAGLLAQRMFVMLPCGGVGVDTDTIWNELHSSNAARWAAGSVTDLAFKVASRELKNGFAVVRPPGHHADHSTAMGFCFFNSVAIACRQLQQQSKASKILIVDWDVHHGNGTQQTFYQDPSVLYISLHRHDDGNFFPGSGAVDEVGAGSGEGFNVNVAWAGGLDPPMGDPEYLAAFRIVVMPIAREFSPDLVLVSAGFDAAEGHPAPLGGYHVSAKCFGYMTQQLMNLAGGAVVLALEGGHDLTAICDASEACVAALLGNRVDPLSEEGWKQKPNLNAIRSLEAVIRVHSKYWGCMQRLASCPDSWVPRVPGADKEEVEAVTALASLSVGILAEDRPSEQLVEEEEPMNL

As for `Cn1cnc2c(NC3CCCCC3)nc(Nc3ccc(OCCCCCCC(=O)NO)cc3)nc21` [Example 8, 7-(4-(6-(Cyclohexylamino)-9-methyl-9H-purin-2-ylamino)phenoxy)-N-hydroxyheptanamide], the IC50 in [1] is over 100000 nM; in assay [2], over 100000 nM; in assay [3] it was over 100000 nM; in assay [4], 124 nM; in assay [5], over 100000 nM; in assay [6], 6.8 nM. Further, the IC50 in assay [7] came out at 19 nM; in assay [8], 12 nM; in assay [9], 140 nM; in assay [10], 268 nM; in assay [11] it was 23 nM.

With `Cn1cnc2c(NC3CCCCC3)nc(Nc3ccc(OCCCCCC(=O)NO)cc3)nc21` [Example 9, 6-(4-(6-(cyclohexylamino)-9-methyl-9H-purin-2-ylamino)phenoxy)-N-hydroxyhexanamide], the IC50 in assay [1] is over 100000 nM; in [2], over 100000 nM; in assay [3], over 100000 nM; in [4], 1640 nM; in assay [5], over 100000 nM; in assay [6], 9.8 nM. Further, the IC50 amounted to 284 nM in assay [7]; 159 nM in assay [8]; 1180 nM in assay [9]; 225 nM in [10]; 422 nM in assay [11].

Turning to `CCc1cccc(CC)c1NC(=O)c1nn(C)c2c1CCc1cnc(Nc3ccc(C(=O)NC4CCN(C)CC4)cc3OC(F)(F)F)nc1-2` [NMS-P715], the “efficacy in an ovarian xenograft” value in assay [12] was “promising efficacies”.

Turning to `Oc1c2ccccc2c2c3c(cccc13)N=N2` [SP600125], in assay [13], the concentration for half-maximal inhibition (IC50) was 250 nM.

By IC50 is commonly meant the concentration that inhibits the measured activity by half.
